From ChEMBL document CHEMBL4507270 (2021)
Calls of active or inactive are those of the source. No cut-off for these calls is given here.

Experiments:
[1] = molecular target: Cyclin-dependent kinase 14 (Homo sapiens) (UniProt O94921)
[2] = molecular target: Ephrin type-B receptor 3 (Homo sapiens) (UniProt P54753)
[3] = molecular target: Dual specificity protein kinase CLK3 (Homo sapiens) (UniProt P49761)
[4] = molecular target: Serine/threonine-protein kinase PAK 5 (Homo sapiens) (UniProt Q9P286)
[5] = molecular target: Calcium/calmodulin-dependent protein kinase type II subunit delta (Homo sapiens) (UniProt Q13557)
[6] = molecular target: Ephrin type-A receptor 4 (Homo sapiens) (UniProt P54764)
[7] = molecular target: Protein-tyrosine kinase 2-beta (Homo sapiens) (UniProt Q14289)
[8] = molecular target: Tyrosine-protein kinase ITK/TSK (Homo sapiens) (UniProt Q08881)
[9] = molecular target: Casein kinase I isoform alpha-like (Homo sapiens) (UniProt Q8N752)
[10] = molecular target: Serine/threonine-protein kinase Chk1 (Homo sapiens) (UniProt O14757)
[11] = molecular target: Bone morphogenetic protein receptor type-1A (Homo sapiens) (UniProt P36894)
[12] = molecular target: T1, Discoidin domain-containing receptor 2 (Homo sapiens, UniProt Q16832); assay: NanoBRET assay (SGC Frankfurt) with DDR2
T1 sequence (Q16832 whole entry): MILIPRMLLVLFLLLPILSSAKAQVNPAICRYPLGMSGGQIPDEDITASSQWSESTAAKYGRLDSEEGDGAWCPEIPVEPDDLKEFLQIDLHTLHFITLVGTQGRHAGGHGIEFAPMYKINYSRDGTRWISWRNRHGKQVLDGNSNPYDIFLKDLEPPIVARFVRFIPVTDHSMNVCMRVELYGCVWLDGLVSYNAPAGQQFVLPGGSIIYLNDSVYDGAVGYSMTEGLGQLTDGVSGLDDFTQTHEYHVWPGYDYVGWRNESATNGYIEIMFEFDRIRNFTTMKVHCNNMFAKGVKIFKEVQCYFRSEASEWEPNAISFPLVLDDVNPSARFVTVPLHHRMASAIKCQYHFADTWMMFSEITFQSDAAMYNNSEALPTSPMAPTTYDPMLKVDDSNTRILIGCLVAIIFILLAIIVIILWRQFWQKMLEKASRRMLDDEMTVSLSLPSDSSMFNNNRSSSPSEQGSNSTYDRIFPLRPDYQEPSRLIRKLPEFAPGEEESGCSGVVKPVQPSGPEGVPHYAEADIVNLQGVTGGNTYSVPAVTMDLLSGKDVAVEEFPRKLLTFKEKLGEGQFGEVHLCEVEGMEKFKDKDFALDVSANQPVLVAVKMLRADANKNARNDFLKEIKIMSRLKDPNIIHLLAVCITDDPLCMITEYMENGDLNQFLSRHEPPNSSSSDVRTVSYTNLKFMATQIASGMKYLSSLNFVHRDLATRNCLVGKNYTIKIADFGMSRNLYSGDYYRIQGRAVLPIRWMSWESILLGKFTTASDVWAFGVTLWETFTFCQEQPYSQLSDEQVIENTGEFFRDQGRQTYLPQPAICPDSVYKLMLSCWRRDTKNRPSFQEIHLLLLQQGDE

[13] = molecular target: Tyrosine-protein kinase ABL1 (Homo sapiens) (UniProt P00519)
[14] = molecular target: Serine/threonine-protein kinase 24 (Homo sapiens) (UniProt Q9Y6E0)
[15] = molecular target: Serine/threonine-protein kinase ULK1 (Homo sapiens) (UniProt O75385)
[16] = system: Epidermal growth factor receptor (Homo sapiens), P00533 [G719S]
[17] = molecular target: Alpha-1D adrenergic receptor (Homo sapiens) (UniProt P25100); settings: Compound concentration 10.0 uM
[18] = molecular target: NT-3 growth factor receptor (Homo sapiens) (UniProt Q16288)
[19] = molecular target: Phosphorylase b kinase gamma catalytic chain, skeletal muscle/heart isoform (Homo sapiens) (UniProt Q16816)
[20] = molecular target: Ephrin type-A receptor 5 (Homo sapiens) (UniProt P54756)
[21] = molecular target: Mitogen-activated protein kinase kinase kinase 10 (Homo sapiens) (UniProt Q02779)
[22] = molecular target: MAP kinase-interacting serine/threonine-protein kinase 1 (Homo sapiens) (UniProt Q9BUB5)
[23] = molecular target: Death-associated protein kinase 3 (Homo sapiens) (UniProt O43293)
[24] = molecular target: Cyclin-dependent kinase-like 2 (Homo sapiens) (UniProt Q92772)
[25] = molecular target: Wee1-like protein kinase (Homo sapiens) (UniProt P30291)
[26] = molecular target: 5'-AMP-activated protein kinase catalytic subunit alpha-2 (Homo sapiens) (UniProt P54646)
[27] = system: Receptor-type tyrosine-protein kinase FLT3 (Homo sapiens), P36888 [UNDEFINED MUTATION]
[28] = molecular target: Serine/threonine-protein kinase 17B (Homo sapiens) (UniProt O94768)
[29] = molecular target: Serine/threonine-protein kinase RIO1 (Homo sapiens) (UniProt Q9BRS2)
[30] = molecular target: Dual specificity protein kinase CLK1 (Homo sapiens) (UniProt P49759)
[31] = molecular target: Sodium-dependent serotonin transporter (Homo sapiens) (UniProt P31645); settings: Compound concentration 10.0 uM
[32] = molecular target: GABA-A receptor; anion channel (Rattus norvegicus) (UniProt O09028+P15431+P18506+P18508+P19969+P20236+P23574+P23576+P28471+P28473+P30191+P62813+P63079+P63138+Q91ZM7+Q9ES14); settings: Compound concentration 10.0 uM
[33] = Compound concentration 1000.0 nM
[34] = Compound concentration 100.0 nM

Chain of Cyclin-dependent kinase-like 2 (Homo sapiens) (Q92772 whole entry): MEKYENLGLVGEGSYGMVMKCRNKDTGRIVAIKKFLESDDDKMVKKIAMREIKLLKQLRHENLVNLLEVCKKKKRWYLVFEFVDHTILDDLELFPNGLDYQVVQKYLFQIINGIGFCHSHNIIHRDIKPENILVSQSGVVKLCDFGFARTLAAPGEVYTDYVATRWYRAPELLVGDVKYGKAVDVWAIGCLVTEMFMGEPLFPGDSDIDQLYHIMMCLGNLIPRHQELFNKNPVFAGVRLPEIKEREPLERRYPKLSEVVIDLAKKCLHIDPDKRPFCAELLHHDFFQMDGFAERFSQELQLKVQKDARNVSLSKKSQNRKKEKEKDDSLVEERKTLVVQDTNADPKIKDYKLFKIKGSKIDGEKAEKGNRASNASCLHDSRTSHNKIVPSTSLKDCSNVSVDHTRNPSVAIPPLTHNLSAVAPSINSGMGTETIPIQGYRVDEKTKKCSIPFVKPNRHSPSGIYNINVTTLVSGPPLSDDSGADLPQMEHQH
Chain of Serine/threonine-protein kinase 17B (Homo sapiens) (O94768 whole entry): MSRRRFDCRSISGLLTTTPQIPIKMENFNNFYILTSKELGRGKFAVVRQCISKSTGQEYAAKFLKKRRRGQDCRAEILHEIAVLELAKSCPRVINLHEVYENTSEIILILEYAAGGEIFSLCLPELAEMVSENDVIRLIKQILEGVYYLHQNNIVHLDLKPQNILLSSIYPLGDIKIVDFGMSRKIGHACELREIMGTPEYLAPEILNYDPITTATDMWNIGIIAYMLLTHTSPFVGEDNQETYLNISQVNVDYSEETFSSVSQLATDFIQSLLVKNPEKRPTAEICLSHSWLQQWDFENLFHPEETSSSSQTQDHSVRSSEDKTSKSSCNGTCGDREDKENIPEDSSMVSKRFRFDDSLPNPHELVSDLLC
Chain of NT-3 growth factor receptor (Homo sapiens) (Q16288 32-839 limits assumed): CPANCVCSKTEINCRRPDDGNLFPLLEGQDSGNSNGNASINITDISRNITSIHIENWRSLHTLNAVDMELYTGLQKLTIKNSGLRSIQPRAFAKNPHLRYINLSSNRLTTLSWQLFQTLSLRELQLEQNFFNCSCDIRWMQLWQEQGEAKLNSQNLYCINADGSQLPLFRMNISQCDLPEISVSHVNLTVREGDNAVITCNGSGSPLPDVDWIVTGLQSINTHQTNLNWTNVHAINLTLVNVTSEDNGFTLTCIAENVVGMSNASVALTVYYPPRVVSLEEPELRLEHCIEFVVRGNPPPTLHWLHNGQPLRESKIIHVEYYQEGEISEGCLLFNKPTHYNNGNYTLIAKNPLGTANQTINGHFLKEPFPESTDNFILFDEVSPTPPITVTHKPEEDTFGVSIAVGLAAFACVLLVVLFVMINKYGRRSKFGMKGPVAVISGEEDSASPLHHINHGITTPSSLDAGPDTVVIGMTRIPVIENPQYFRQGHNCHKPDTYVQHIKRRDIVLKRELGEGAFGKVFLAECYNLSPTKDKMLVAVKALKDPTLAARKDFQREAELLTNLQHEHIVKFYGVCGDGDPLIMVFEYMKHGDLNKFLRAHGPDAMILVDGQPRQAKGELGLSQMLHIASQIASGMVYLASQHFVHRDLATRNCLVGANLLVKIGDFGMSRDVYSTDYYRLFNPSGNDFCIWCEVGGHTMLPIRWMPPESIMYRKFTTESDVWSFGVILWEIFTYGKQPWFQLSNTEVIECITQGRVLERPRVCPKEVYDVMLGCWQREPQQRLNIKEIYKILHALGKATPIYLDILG
Chain of Wee1-like protein kinase (Homo sapiens) (P30291 whole entry, looked up): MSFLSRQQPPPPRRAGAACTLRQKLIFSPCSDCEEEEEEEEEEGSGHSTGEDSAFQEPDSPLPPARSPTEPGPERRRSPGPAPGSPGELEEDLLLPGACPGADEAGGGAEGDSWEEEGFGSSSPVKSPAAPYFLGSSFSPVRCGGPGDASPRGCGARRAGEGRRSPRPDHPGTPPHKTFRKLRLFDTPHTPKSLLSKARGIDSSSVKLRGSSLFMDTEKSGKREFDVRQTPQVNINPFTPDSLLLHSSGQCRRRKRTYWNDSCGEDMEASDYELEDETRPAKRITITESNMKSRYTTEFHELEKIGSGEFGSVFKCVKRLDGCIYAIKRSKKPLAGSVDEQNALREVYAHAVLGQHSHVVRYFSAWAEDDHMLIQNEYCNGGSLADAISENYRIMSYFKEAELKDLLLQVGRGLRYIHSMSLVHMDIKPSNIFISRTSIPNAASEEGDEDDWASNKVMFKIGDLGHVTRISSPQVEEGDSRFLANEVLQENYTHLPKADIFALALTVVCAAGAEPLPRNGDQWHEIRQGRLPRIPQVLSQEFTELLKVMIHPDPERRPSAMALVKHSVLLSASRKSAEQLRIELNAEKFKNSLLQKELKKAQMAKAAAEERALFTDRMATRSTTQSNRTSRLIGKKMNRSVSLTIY
Chain of Protein-tyrosine kinase 2-beta (Homo sapiens) (Q14289 whole entry, looked up): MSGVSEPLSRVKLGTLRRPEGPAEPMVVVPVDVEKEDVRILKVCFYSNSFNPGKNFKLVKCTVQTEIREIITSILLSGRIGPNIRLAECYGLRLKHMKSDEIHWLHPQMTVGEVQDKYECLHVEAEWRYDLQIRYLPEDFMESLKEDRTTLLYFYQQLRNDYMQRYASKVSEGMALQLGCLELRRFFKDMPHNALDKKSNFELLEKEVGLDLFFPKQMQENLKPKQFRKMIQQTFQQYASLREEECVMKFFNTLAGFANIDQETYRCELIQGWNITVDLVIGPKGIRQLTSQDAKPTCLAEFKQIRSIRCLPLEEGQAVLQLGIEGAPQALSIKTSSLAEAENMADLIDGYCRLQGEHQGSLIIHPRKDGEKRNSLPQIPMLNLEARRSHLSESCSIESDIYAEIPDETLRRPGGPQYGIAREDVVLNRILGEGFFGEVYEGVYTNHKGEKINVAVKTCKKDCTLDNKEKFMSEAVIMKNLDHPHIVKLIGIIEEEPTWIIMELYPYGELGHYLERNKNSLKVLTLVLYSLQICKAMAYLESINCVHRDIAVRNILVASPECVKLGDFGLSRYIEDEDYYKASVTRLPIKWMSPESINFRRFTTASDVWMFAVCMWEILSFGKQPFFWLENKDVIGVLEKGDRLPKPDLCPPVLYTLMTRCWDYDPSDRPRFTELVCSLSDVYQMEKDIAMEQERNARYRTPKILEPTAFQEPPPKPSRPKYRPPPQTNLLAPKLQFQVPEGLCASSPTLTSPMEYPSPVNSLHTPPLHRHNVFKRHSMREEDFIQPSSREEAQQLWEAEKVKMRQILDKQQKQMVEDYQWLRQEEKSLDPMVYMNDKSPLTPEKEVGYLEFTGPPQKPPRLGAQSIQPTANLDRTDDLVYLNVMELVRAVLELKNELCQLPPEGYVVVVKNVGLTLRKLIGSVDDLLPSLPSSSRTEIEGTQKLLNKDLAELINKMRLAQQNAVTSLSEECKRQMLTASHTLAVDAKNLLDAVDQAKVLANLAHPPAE
Chain of Serine/threonine-protein kinase 24 (Homo sapiens) (Q9Y6E0 whole entry, looked up): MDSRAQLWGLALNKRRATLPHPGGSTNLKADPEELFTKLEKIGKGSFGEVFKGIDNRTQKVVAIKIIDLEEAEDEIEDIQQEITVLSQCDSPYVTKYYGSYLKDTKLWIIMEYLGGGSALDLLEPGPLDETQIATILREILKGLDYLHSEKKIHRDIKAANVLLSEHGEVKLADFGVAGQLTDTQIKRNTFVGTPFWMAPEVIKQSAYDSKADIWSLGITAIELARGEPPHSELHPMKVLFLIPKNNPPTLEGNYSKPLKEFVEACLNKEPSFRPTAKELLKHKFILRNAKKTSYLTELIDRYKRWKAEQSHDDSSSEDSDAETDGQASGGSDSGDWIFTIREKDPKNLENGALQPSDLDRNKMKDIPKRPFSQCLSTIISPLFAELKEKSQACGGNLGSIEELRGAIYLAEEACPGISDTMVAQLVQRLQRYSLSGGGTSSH
Chain of 5'-AMP-activated protein kinase catalytic subunit alpha-2 (Homo sapiens) (P54646 whole entry, looked up): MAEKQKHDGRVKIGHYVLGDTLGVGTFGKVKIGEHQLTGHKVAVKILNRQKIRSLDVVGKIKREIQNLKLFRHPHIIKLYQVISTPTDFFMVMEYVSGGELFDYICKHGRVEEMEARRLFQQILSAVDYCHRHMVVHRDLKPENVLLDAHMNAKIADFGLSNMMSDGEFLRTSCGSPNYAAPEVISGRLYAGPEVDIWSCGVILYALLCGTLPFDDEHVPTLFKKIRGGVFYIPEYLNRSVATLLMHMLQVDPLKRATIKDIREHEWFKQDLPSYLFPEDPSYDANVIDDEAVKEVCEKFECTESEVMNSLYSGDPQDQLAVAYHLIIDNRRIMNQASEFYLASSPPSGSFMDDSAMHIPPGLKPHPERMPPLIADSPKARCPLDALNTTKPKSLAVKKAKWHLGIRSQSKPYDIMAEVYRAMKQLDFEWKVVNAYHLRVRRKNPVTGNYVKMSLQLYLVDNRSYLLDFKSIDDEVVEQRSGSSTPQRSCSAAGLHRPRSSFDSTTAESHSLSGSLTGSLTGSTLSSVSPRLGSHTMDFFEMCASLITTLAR
Chain of Death-associated protein kinase 3 (Homo sapiens) (O43293 whole entry, looked up): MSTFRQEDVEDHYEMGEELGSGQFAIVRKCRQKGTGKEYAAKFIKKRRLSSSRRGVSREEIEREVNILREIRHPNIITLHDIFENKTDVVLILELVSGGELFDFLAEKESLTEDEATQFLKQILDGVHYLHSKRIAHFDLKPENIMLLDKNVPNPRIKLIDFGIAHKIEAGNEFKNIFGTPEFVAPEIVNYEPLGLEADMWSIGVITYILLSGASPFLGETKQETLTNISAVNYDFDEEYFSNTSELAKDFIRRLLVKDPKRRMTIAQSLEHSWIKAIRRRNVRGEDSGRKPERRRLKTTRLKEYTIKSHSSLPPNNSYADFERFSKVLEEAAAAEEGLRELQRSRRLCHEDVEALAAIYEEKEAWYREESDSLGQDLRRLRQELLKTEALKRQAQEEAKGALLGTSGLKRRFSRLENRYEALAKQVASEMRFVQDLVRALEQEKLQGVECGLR

## Cc1cc(NC(=O)c2cccc(S(F)(F)(F)(F)F)c2)cc(-n2ccn3nc(-c4cccnc4)cc23)c1 [BAY-309]
[1]; [33]
  residual activity: 93.8%
[2]; [33]
  residual activity: 100%
[3]; [33]
  residual activity: 100%
[4]; [33]
  residual activity: 100%
[5]; [33]
  residual activity: 80%
[6]; [33]
  residual activity: 76%
[7]; [33]
  residual activity: 100%
[8]; [33]
  residual activity: 100%
[9]; [33]
  residual activity: 100%
[10]; [33]
  residual activity: 72%
[11]; [33]
  residual activity: 94.4%
[12]
  EC50: 2700 nM (not active)
  IC50: 9300 nM (not active)
[13]; [33]
  residual activity: 73.6%
[14]; [33]
  residual activity: 100%
[15]; [33]
  residual activity: 100%
[16]; [33]
  residual activity: 100%
[17]
  inhibition: 27.7%
[18]; [33]
  residual activity: 27.2%
[19]; [33]
  residual activity: 100%
[20]; [33]
  residual activity: 100%
[21]; [33]
  residual activity: 100%
[22]; [33]
  residual activity: 100%
[23]; [33]
  residual activity: 100%
[24]; [33]
  residual activity: 100%
[25]; [33]
  residual activity: 100%
[26]; [33]
  residual activity: 100%
[27]; [33]
  residual activity: 100%
[28]; [33]
  residual activity: 100%
[29]; [33]
  residual activity: 100%
[30]; [33]
  residual activity: 100%
[31]
  inhibition: 19.2%
[32]
  inhibition: -4.43%

## Cc1cc(C)c(-n2ccn3nc(-c4cccnc4)cc23)cc1NC(=O)c1cc(C#N)cc(S(F)(F)(F)(F)F)c1 [BAY-826]
[1]; [34]
  residual activity: 100%
[2]; [34]
  residual activity: 100%
[3]; [34]
  residual activity: 87.7%
[4]; [34]
  residual activity: 83.5%
[5]; [34]
  residual activity: 89.1%
[6]; [34]
  residual activity: 100%
[7]; [34]
  residual activity: 81.4%
[8]; [34]
  residual activity: 84.9%
[9]; [34]
  residual activity: 88.4%
[10]; [34]
  residual activity: 86%
[11]; [34]
  residual activity: 97.2%
[12]
  EC50: 0.54 nM (active)
  IC50: 3 nM (active)
[13]; [34]
  residual activity: 74.6%
[14]; [34]
  residual activity: 75.9%
[15]; [34]
  residual activity: 100%
[16]; [34]
  residual activity: 94.8%
[17]
  inhibition: -2.46%
[18]; [34]
  residual activity: 60.4%
[19]; [34]
  residual activity: 80.1%
[20]; [34]
  residual activity: 92.4%
[21]; [34]
  residual activity: 100%
[22]; [34]
  residual activity: 83.8%
[23]; [34]
  residual activity: 78.1%
[24]; [34]
  residual activity: 75.6%
[25]; [34]
  residual activity: 100%
[26]; [34]
  residual activity: 82.7%
[27]; [34]
  residual activity: 69.3%
[28]; [34]
  residual activity: 91.4%
[29]; [34]
  residual activity: 100%
[30]; [34]
  residual activity: 96.2%
[31]
  inhibition: 11.1%
[32]
  inhibition: -6.93%
